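Dose response: 5 concentrations. Exposure: 48 h. Format: 96-well plates. Endpoint: linear interpolation; highest concentration if not reached. The concentration for full growth arrest is given as TGI.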
Assays:
Assay in all cases: growth of human tumour cells (NCI), 48 h
[1] = test system: SNB-78 CNS
[2] = test system: OVCAR-4 ovarian
[3] = test system: CCRF-CEM leukemia
[4] = test system: DLD-1 colon
[5] = test system: NCI-H226 lung
[6] = test system: HT29 colon
[7] = test system: A498 renal
[8] = test system: LOX IMVI melanoma
[9] = test system: HOP-92 NSCLC
[10] = test system: K-562 leukemia
[11] = test system: SF-268 CNS
[12] = test system: KM12 colon
[13] = test system: M19-MEL melanoma
[14] = test system: SF-539 CNS
[15] = test system: OVCAR-8 ovarian
[16] = test system: U251 CNS
[17] = test system: SNB-75 CNS
[18] = test system: OVCAR-3 ovarian
[19] = test system: KM20L2 colon
[20] = test system: HL-60(TB) leukemia
[21] = test system: HCT-15 colon
[22] = test system: SK-MEL-28 melanoma
[23] = test system: EKVX NSCLC
[24] = test system: SK-MEL-2 melanoma
[25] = test system: TK-10 renal
[26] = test system: NCI-H23 lung
[27] = test system: UACC-257 melanoma
[28] = test system: NCI-H522 lung
[29] = test system: COLO 205 colon
[30] = test system: M14 melanoma
[31] = test system: DMS 273 small cell lung
[32] = test system: XF 498 CNS
[33] = test system: IGROV1 ovarian
[34] = test system: 786-0 renal
[35] = test system: UO-31 renal
[36] = test system: NCI-H460 lung
[37] = test system: SN12C renal
[38] = test system: MOLT-4 leukemia
[39] = test system: SR leukemia
[40] = test system: SNB-19 CNS
[41] = test system: SK-OV-3 ovarian
[42] = test system: RXF 393 renal
[43] = test system: SF-295 CNS
[44] = test system: LXFL 529 NSCLC
[45] = test system: MALME-3M melanoma
[46] = test system: CAKI-1 renal
[47] = test system: HOP-18 NSCLC
[48] = test system: ACHN renal
[49] = test system: HOP-62 NSCLC
[50] = test system: A549 NSCLC
[51] = test system: DMS 114 small cell lung
[52] = test system: RPMI-8226 leukemia
[53] = test system: SK-MEL-5 melanoma
[54] = test system: HCC-2998 colon
[55] = test system: OVCAR-5 ovarian
[56] = test system: UACC-62 melanoma
[57] = test system: HCT-116 colon
[58] = test system: RXF-631 renal
[59] = test system: SW-620 colon

COc1ccc(NC(=O)C/C(C)=N\N=C(N)N)c([N+](=O)[O-])c1
TGI [1]: > 100 µM
TGI [2]: > 100 µM
TGI [3]: > 100 µM
TGI [4]: > 100 µM
TGI [5]: > 100 µM
TGI [6]: > 100 µM
TGI [7]: > 100 µM
TGI [8]: > 100 µM
TGI [9]: > 100 µM
TGI [10]: > 100 µM
TGI [11]: > 100 µM
TGI [12]: > 100 µM
TGI [13]: > 100 µM
TGI [14]: > 100 µM
TGI [15]: > 100 µM
TGI [16]: > 100 µM
TGI [17]: > 100 µM
TGI [18]: > 100 µM
TGI [19]: > 100 µM
TGI [20]: > 100 µM
TGI [21]: > 100 µM
TGI [22]: > 100 µM
TGI [23]: > 100 µM
TGI [24]: > 100 µM
TGI [25]: > 100 µM
TGI [26]: > 100 µM
TGI [27]: > 100 µM
TGI [28]: > 100 µM
TGI [29]: > 100 µM
TGI [30]: > 100 µM
TGI [31]: > 100 µM
TGI [32]: > 100 µM
TGI [33]: > 100 µM
TGI [34]: > 100 µM
TGI [35]: > 100 µM
TGI [36]: > 100 µM
TGI [37]: > 100 µM
TGI [38]: > 100 µM
TGI [39]: 48.8 µM
TGI [40]: > 100 µM
TGI [41]: > 100 µM
TGI [42]: > 100 µM
TGI [43]: > 100 µM
TGI [44]: > 100 µM
TGI [45]: > 100 µM
TGI [46]: > 100 µM
TGI [47]: > 100 µM
TGI [48]: > 100 µM
TGI [49]: > 100 µM
TGI [50]: > 100 µM
TGI [51]: > 100 µM
TGI [52]: > 100 µM
TGI [53]: > 100 µM
TGI [54]: > 100 µM
TGI [55]: > 100 µM
TGI [56]: > 100 µM
TGI [57]: > 100 µM

CCCCCCCCCCCC(=O)OCCOCCOCCOCCOCCOCc1ccc(OC)cc1
TGI [1]: > 100 µM
TGI [2]: > 100 µM
TGI [3]: > 100 µM
TGI [4]: > 100 µM
TGI [5]: > 100 µM
TGI [6]: > 100 µM
TGI [7]: > 100 µM
TGI [8]: > 100 µM
TGI [9]: > 100 µM
TGI [10]: > 100 µM
TGI [11]: > 100 µM
TGI [12]: > 100 µM
TGI [13]: > 100 µM
TGI [58]: > 100 µM
TGI [15]: > 100 µM
TGI [16]: > 100 µM
TGI [17]: > 100 µM
TGI [18]: > 100 µM
TGI [19]: > 100 µM
TGI [20]: 51.7 µM
TGI [21]: > 100 µM
TGI [22]: > 100 µM
TGI [23]: > 100 µM
TGI [24]: > 100 µM
TGI [59]: > 100 µM
TGI [25]: > 100 µM
TGI [26]: > 100 µM
TGI [27]: > 100 µM
TGI [28]: > 100 µM
TGI [29]: > 100 µM
TGI [30]: > 100 µM
TGI [31]: > 100 µM
TGI [33]: > 100 µM
TGI [34]: > 100 µM
TGI [35]: > 100 µM
TGI [36]: > 100 µM
TGI [37]: > 100 µM
TGI [38]: > 100 µM
TGI [39]: > 100 µM
TGI [40]: > 100 µM
TGI [41]: > 100 µM
TGI [42]: > 100 µM
TGI [43]: > 100 µM
TGI [44]: > 100 µM
TGI [45]: > 100 µM
TGI [46]: > 100 µM
TGI [47]: > 100 µM
TGI [48]: > 100 µM
TGI [49]: > 100 µM
TGI [50]: > 100 µM
TGI [51]: > 100 µM
TGI [52]: > 100 µM
TGI [53]: > 100 µM
TGI [54]: > 100 µM
TGI [55]: > 100 µM
TGI [56]: > 100 µM
TGI [57]: > 100 µM
